From patent US5225528A, “Cyclic hexapeptide oxytocin antagonists” (priority 1990, dated 1993)
Where two headings read alike, the source gives them in different places. Numbered stars: 1 amine (or outer) side, 2 acyl side, 3 side chain; on linkers, the order of the positions; unused ones are H or OH. Square brackets hold non-standard residues; d marks the D form. Peptide text beside a SMILES is read from it. * marks the point of attachment. dPip(4-aza,4-Cbz) = O=C(O)[C@H]1CN(C(=O)OCc2ccccc2)CCN1; X2 = O=C(OCc1ccccc1)N1CCN([*:1])[C@H](C(=O)[*:2])C1; X4 = O=C([C@@H](Cc1cn(COCc2ccccc2)cn1)N[*:1])[*:2]; dPhe(4-NH2) = Nc1ccc(C[C@@H](N)C(=O)O)cc1; dPiz(1,6-dehydro) = O=C(O)[C@H]1CCC=NN1; Pip(4-aza) = O=C(O)[C@@H]1CNCCN1; X6 = O=C([C@H]1CCCNN1[*:1])[*:2]; dNMeF = CN[C@H](Cc1ccccc1)C(=O)O; Chg = N[C@H](C(=O)O)C1CCCCC1; Pip = O=C(O)[C@@H]1CCCCN1; dPip = O=C(O)[C@H]1CCCCN1; Orn = NCCC[C@H](N)C(=O)O; dNMeA = CN[C@H](C)C(=O)O; Boc = CC(C)(C)OC(=O)*; Me2Gly = CN(C)CC(=O)*

Experiments:
[1] = biological target: T1, AVP-V1 sites (Rattus norvegicus, UniProt P30560); assay: [^3 H]AVP binding to crude membrane preparation of male rat liver (AVP-V1 sites)
T1 construct: crude membrane preparation of male rat liver (AVP-V1 sites); from tissue; host or cells: male rat liver, crude membranes
Description: (§1) Nonspecific binding (5-10% of the total binding) was determined using 10 μM unlabeled AVP, and the binding reaction was terminated by filtration as described above for the [^3 H]OT binding assay.

[2] = biological target: T2, AVP-V2 sites (Rattus norvegicus, UniProt Q00788); assay: [^3 H]AVP binding to crude membrane preparation of male rat kidney medulla (AVP-V2 sites)
T2 construct: male rat liver (AVP-V1 sites) or kidney medulla (AVP-V2 sites); from tissue; host or cells: male rat kidney medulla, crude membranes
Description: as §1

[3] = biological target: T3, uterine OT receptors (Rattus norvegicus, UniProt P70536); assay: [^3 H]OT binding to uterine OT receptors, crude membrane preparation of uteri from DES-treated rats; conditions: for inhibition at 1 µM: @ 1,000 (nM)
T3 construct: from tissue; host or cells: uterus of DES-treated rats, crude membranes
T3 sequence (P70536 1-388): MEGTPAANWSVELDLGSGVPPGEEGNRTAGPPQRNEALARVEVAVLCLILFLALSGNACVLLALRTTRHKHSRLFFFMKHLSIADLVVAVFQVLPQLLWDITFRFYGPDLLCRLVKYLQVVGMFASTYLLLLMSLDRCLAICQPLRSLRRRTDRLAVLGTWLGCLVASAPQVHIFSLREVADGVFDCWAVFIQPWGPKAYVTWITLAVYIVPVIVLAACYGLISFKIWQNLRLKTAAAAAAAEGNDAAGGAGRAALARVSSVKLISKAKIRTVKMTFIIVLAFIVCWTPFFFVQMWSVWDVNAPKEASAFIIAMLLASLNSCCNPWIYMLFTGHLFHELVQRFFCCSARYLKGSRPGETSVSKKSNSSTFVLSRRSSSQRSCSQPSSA
Description: Competition studies were conducted at equilibrium (60 minutes; 22° C.) using 1 nM [^3 H]OT in the following assay buffer: 50 mM Tris-HCl, 5 mM MgCl2, and 0.1% BSA, pH 7.4.

[4] = Receptor Binding Results IC50 (nM) [^3 H]-AVP-V1
[5] = rat kidney medulla membranes, 2 nM [^3 H]AVP, read-out: Receptor Binding Results IC50 (nM) [^3 H]-AVP-V2
[6] = rat uterus membranes, 1 nM [^3 H]OT, read-out: Receptor Binding Results IC50 (nM) [^3 H]OT
[7] = read-out: Receptor Binding Results IC50 (nM) [^3 H]-AVP-V1
[8] = read-out: Receptor Binding Results IC50 (nM) [^3 H]-AVP-V2
[9] = Receptor Binding Results IC50 (nM) [^3 H]OT
[10] = Receptor Binding Results IC50 (nM) [^3 H]-AVP-V2
[11] = 1 h, read-out: [^3 H]OT: percent inhibition of radioligand at the given concentration

T2 sequence (Q00788 whole entry): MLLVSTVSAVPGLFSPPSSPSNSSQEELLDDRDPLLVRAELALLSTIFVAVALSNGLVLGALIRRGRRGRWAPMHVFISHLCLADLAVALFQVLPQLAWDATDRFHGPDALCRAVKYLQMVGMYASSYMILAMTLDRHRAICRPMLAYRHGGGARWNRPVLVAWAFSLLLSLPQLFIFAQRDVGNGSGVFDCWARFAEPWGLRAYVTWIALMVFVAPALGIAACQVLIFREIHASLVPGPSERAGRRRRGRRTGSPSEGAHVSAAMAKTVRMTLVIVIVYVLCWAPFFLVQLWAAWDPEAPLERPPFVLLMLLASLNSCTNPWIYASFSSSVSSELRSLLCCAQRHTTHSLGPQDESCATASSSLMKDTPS
T1 sequence (P30560 whole entry): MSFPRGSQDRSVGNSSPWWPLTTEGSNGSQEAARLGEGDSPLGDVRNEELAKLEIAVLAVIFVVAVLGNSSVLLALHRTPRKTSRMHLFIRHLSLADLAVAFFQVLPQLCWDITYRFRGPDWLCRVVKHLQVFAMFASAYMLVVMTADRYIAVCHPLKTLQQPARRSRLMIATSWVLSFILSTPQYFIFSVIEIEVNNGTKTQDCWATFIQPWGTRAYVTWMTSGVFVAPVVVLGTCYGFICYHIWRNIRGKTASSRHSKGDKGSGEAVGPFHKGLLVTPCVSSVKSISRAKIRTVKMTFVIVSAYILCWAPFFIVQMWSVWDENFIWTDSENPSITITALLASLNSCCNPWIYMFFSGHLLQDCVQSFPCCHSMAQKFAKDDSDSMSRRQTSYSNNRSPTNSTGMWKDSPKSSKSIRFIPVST

| IC50 [2, 8] | Structure (SMILES) | IC50 [1, 4] | IC50 [2, 5] | IC50 [3, 6] | also measured |
| --- | --- | --- | --- | --- | --- |
| – | CC[C@H](C)[C@@H]1NC(=O)[C@@H](Cc2ccccc2)NC(=O)[C@@H]2CCCN2C(=O)[C@@H](Cc2ccc(NC(=O)CN(C)C)cc2)NC(=O)[C@@H]2CCCCN2C(=O)[C@H]2CCCCN2C1=O [Example 49, Cyclo[D-phenylalanyl-L-isoleucyl-D-pipecolyl-L-pipecolyl-D-([N,N-dimethylglycyl]p-amino)phenylalanyl-L-prolyl]] (cyclo(I[dPip][Pip][dPhe(4-NH2)](Me2Gly)P[dF])) | 10000 nM | 10000 nM | 320 nM | – |
| 747 nM | CC[C@H](C)[C@@H]1NC(=O)[C@@H](Cc2c[nH]c3ccccc23)NC(=O)[C@@H]2CCCN2C(=O)[C@@H](Cc2ccccc2)N(C)C(=O)[C@@H]2CCCCN2C(=O)[C@H]2CCCCN2C1=O [Example 30, Cyclo[D-tryptophanyl-L-isoleucyl-D-pipecolyl-L-pipecolyl-D(N^α methyl)phenylalanyl-L-prolyl]] (cyclo(I[dPip][Pip][dNMeF]P[dW])) | – | – | 20 nM | IC50 [1, 7]: 12000 nM |
| – | CC[C@H](C)[C@@H]1NC(=O)[C@@H](Cc2c[nH]c3ccccc23)NC(=O)[C@@H]2CCCN2C(=O)[C@@H](Cc2ccccc2)NC(=O)[C@H]2CN(C(=O)OCc3ccccc3)CCN2C(=O)[C@H]2CCCCN2C1=O [Example 90, c-[D-Tryptophanyl-L-isoleucinyl-D-pipecolyl-D-piperazin-2-yl(4-Cbz)-D-phenylalanyl-L-prolyl]] (cyclo(I[dPip][dPip(4-aza,4-Cbz)][dF]P[dW])) | > 10000 nM | > 10000 nM | – | inhibition at 0.1 µM ([3]; 1 h, @ 100 (nM), read-out: [^3 H]OT: percent inhibition of radioligand at the given concentration): 59% |
| – | CCOc1ccc(C[C@H]2NC(=O)[C@@H]3CCCN3C(=O)[C@@H](Cc3ccccc3)NC(=O)[C@H](CC(N)=O)NC(=O)[C@@H]([C@H](C)O)NC(=O)[C@H]([C@@H](C)CC)NC2=O)cc1 [Example 99] (cyclo([dY](Et)I[dT]N[dF]P)) | > 10000 nM | > 10000 nM | > 10000 nM | – |
| – | CC[C@H](C)[C@@H]1NC(=O)[C@@H](Cc2ccccc2)NC(=O)[C@@H]2CCCN2C(=O)[C@@H](C)N(C)C(=O)[C@@H]2CCCCN2C(=O)[C@H]2CCCCN2C1=O [Example 5, Cyclo[D-phenyalanyl-L-isoleucyl-D-pipecolyl-L-pipecolyl-D-(N^α methyl)alanyl-L-prolyl]] (cyclo(I[dPip][Pip][dNMeA]P[dF])) | > 10000 nM | > 10000 nM | – | IC50 [3, 9]: 930 nM |
| – | CC[C@H](C)[C@@H]1NC(=O)[C@@H](Cc2c[nH]c3ccccc23)NC(=O)[C@@H]2CCCN2C(=O)[C@@H](Cc2c[nH]c3ccccc23)NC(=O)[C@@H]2CNCCN2C(=O)[C@H]2CCCCN2C1=O [Example 88, c-[D-Trytophanyl-L-isoleucinyl-D-pipecolyl-L-piperazin-2-yl-D-tryptophanyl-L-prolyl]] (cyclo(I[dPip][Pip(4-aza)][dW]P[dW])) | – | – | 18 nM | IC50 [1, 7]: 5780 nM; IC50 [2, 10]: 1000 nM |
| – | CC[C@H](C)[C@@H]1NC(=O)[C@@H](Cc2ccccc2)NC(=O)[C@@H]2CCCN2C(=O)[C@@H](Cc2cn(COCc3ccccc3)cn2)NC(=O)[C@@H]2CNCCN2C(=O)[C@H]2CCCCN2C1=O [Example 176, c-[D-Phenylalanyl-L-isoleucinyl-D-pipecolyl-L-piperazin-2-yl-D-histidinyl(BOM)-L-prolyl]] (cyclo([dF]I[dPip][Pip(4-aza)][X4]P)) | 10000 nM | – | – | inhibition at 10 µM ([2]; 0.5 h, @ 10,000 (nM), read-out: [^3 H]-AVP-V2: percent inhibition of radioligand at the given concentration): 81%; inhibition at 1 µM [3, 11]: 80% |
| – | CC[C@H](C)[C@@H]1NC(=O)[C@@H](Cc2cn(CC(=O)OC(C)(C)C)c3ccccc23)NC(=O)[C@@H]2CCCN2C(=O)[C@@H](Cc2ccccc2)N(C)C(=O)[C@@H]2CN(CC(=O)OC(C)(C)C)CCN2C(=O)[C@H]2CCCCN2C1=O [Example 182, c-[D-Tryptophanyl(t-butylacetyl)-L-isoleucinyl-D-pipecolyl-L-piperazin-2-yl(4-t-butylacetyl)-D-(N^α -Me)phenylalanyl-L-prolyl]] | > 10000 nM | > 10000 nM | – | inhibition at 1 µM [3, 11]: 56% |
| – | O=C1N[C@@H](C2CCCCC2)C(=O)N2CCC[C@@H]2C(=O)N2CCC[C@H]2C(=O)N[C@H](Cc2ccccc2)C(=O)N2CCC[C@H]2C(=O)N[C@@H]1Cc1ccccc1 [Example 67, c-[D-Phenylalanyl-L-cyclohexylglycyl-D-prolyl-L-prolyl-D-phenylalanyl-L-prolyl]] (cyclo([dF]P[dF][Chg][dP]P)) | > 10000 nM | > 10000 nM | 10000 nM | – |
| – | CC[C@H](C)[C@@H]1NC(=O)[C@@H](Cc2ccc(O)cc2)NC(=O)[C@@H]2CCCN2C(=O)[C@@H](Cc2ccccc2)N(C)C(=O)[C@H](CCCCN)NC(=O)[C@H]2CCCCN2C1=O [Example 147, C-[D-Tyrosyl-L-isoleucyl-D-pipecolyl-L-lysyl-D-(N-methyl)phenylalanyl-L-prolyl]] (cyclo(I[dPip]K[dNMeF]P[dY])) | 10000 nM | 10000 nM | 860 nM | – |
| 3500 nM | CC[C@H](C)[C@@H]1NC(=O)[C@@H](Cc2ccccc2)NC(=O)[C@@H]2CCCN2C(=O)[C@@H](Cc2ccccc2)N(C)C(=O)[C@@H]2CCCCN2C(=O)[C@H]2CCCNN2C1=O [Example 111, c-[D-Phenylalanyl-L-isoleucyl-D-piperazyl-L-pipecolyl-N-methyl-D-phenylalanyl-L-prolyl]] (cyclo(I[X6][Pip][dNMeF]P[dF])) | – | – | 111 nM | IC50 [1, 7]: 4200 nM |
| 12000 nM | CC[C@H](C)[C@@H]1NC(=O)[C@@H](Cc2c[nH]c3ccccc23)NC(=O)[C@@H]2CCCN2C(=O)[C@@H](Cc2cn(COCc3ccccc3)cn2)NC(=O)[C@@H]2CNCCN2C(=O)[C@H]2CCCCN2C1=O [Example 177, c-[D-Tryptophanyl-L-isoleucinyl-D-pipecolyl-L-piperazin-2-yl-D-histidinyl(BOM)-L-prolyl]] (cyclo([dW]I[dPip][Pip(4-aza)][X4]P)) | – | – | 76 nM | IC50 [1, 7]: 16000 nM |
| – | CC[C@H](C)[C@@H]1NC(=O)[C@@H](Cc2c[nH]c3ccccc23)NC(=O)[C@@H]2CCCN2C(=O)[C@@H](Cc2ccccc2)NC(=O)[C@@H]2CNCCN2C(=O)[C@H]2CCCCN2C1=O [Example 87, c-[D-Tryptophanyl-L-isoleucinyl-D-pipecolyl-L-piperazin-2-yl-D-phenylalanyl-L-prolyl]] (cyclo(I[dPip][Pip(4-aza)][dF]P[dW])) | > 10000 nM | – | 62 nM | IC50 [2, 10]: > 1000 nM |
| 3600 nM | CC[C@H](C)[C@@H]1NC(=O)[C@@H](Cc2ccccc2)NC(=O)[C@@H]2CCCN2C(=O)[C@@H](Cc2ccccc2)N(C)C(=O)[C@H](CCCNC(=O)OC(C)(C)C)NC(=O)[C@H]2CCC=NN2C1=O [Example 124, c-[D-Phenylalanyl-L-isoleucyl-D-Δ-piperazyl(N^δ -Boc)-L-orinthyl-N-methyl-D-δ-phenyl-alaninyl-L-prolyl]] (cyclo(I[dPiz(1,6-dehydro)][Orn](Boc)[dNMeF]P[dF])) | – | – | 17.5 nM | IC50 [1, 7]: 2700 nM |
| – | CC[C@H](C)[C@@H]1NC(=O)[C@@H](Cc2ccccc2)NC(=O)[C@@H]2CCCN2C(=O)[C@@H](Cc2ccccc2)NC(=O)[C@H](CC(N)=O)NC(=O)[C@H]([C@@H](C)O)NC1=O [Example 98, c-[D-Phenylalanyl-L-isoleucyl-L-threonyl-L-asparagyl-D-phenylalanyl-L-prolyl]] (cyclo(ITN[dF]P[dF])) | > 10000 nM | > 10000 nM | 7700 nM | – |

| Structure (SMILES) | IC50 [2, 8] | IC50 [1, 4] | IC50 [2, 5] | IC50 [3, 6] | also measured |
| --- | --- | --- | --- | --- | --- |
| CC[C@H](C)[C@@H]1NC(=O)[C@@H](Cc2c[nH]c3ccccc23)NC(=O)[C@@H]2CCCN2C(=O)[C@@H](Cc2ccccc2)N(C)C(=O)[C@@H]2CNCCN2C(=O)[C@H]2CCCCN2C1=O [Example 92, c-[D-Tryptophanyl-L-isoleucinyl-D-pipecolyl-L-piperazin-2-yl-D-(N^α -methyl)phenylalanyl-L-prolyl]] (cyclo(I[dPip][Pip(4-aza)][dNMeF]P[dW])) | 750 nM | > 10000 nM | – | – | IC50 [3, 9]: 7.7 nM |
| CC[C@H](C)[C@@H]1NC(=O)[C@@H](Cc2ccccc2)NC(=O)[C@@H]2CCCN2C(=O)[C@@H](Cc2ccccc2)NC(=O)[C@@H]2CN(C(=O)OCc3ccccc3)CCN2C(=O)[C@H]2CCCCN2C1=O [Example 77, c-[D-Phenylalanyl-L-isoleucinyl-D-pipecolyl-L-piperazin-2-yl(4-Cbz)-D-phenylalanyl-L-prolyl]] (cyclo(I[dPip][X2][dF]P[dF])) | 12300 nM | 10000 nM | – | 240 nM | – |
